In article PMC6931042 (Bioorganic chemistry, 2018):
Read-outs that look alike come from different tables or passages of the source.

Legend:
[1] = tested on: human lung adenocarcinoma A549; assay: Trypan blue exclusion cytotoxicity assay
[2] = tested on: chronic myeloid leukemia K-562; assay: Trypan blue exclusion cytotoxicity assay
[3] = Homo sapiens, A549, 24 h, read-out: A549 (IC50 μM), trypan blue exclusion, mean ± SD
[4] = Homo sapiens, K562, 24 h, read-out: K-562 (IC50 μM), trypan blue exclusion, mean ± SD
[5] = read-out: K-562 (IC50 μM), trypan blue exclusion, 24 h, mean ± SD
[6] = read-out: A549 (IC50 μM), trypan blue exclusion, 24 h, mean ± SD

| SMILES | IC50 [1, 3] | IC50 [2, 4] | IC50 [2, 5] | IC50 [1, 6] |
| --- | --- | --- | --- | --- |
| Nc1ccc(C(/C=C\c2ccccc2)=NNC(=O)c2cc(-c3ccccc3)nc3ccccc23)cc1 [Compound 9a, N’-((Z)-1-(4-Aminophenyl)-3-phenylallylidene)-2-phenylquinoline-4-carbohydrazide] | > 100 µM | 83 µM | 82.8 ± 3.24 µM | – |
| Nc1ccc(C(/C=C\c2ccccc2)=NNC(=O)c2cc(-c3ccc(Cl)cc3)nc3ccccc23)cc1 [Compound 9b, N’-((Z)-1-(4-Aminophenyl)-3-phenylallylidene)-2-(4-chlorophenyl)quinoline-4-carbohydrazide] | 17.6 ± 2.5 µM | 8.96 ± 1.06 µM | – | – |
| N.N.[Cl][Pt][Cl] [Cisplatin, reference compound] | – | – | 2.71 ± 0.34 µM | 15.3 ± 1.87 µM |
| COc1ccc(/C=C\C(=NNC(=O)c2cc(-c3ccc(Cl)cc3)nc3ccccc23)c2ccc(N)cc2)cc1 [Compound 9n, N’-((Z)-1-(4-Aminophenyl)-3-(4-methoxyphenyl)allylidene)-2-(4-chlorophenyl)quinoline-4-carbohydrazide] | 48.3 ± 1.69 µM | 14.4 ± 0.94 µM | – | – |
| Nc1ccc(C(/C=C\c2ccc(Cl)cc2)=NNC(=O)c2cc(-c3ccccc3)nc3ccccc23)cc1 [Compound 9g, N’-((Z)-1-(4-Aminophenyl)-3-(4-chlorophenyl)allylidene)-2-phenylquinoline-4-carbohydrazide] | 18.5 µM | 15.2 µM | 15.2 ± 2.15 µM | 18.5 ± 0.52 µM |
| COc1ccc(-c2cc(C(=O)NN=C(/C=C\c3ccccc3)c3ccc(N)cc3)c3cc(OC)ccc3n2)cc1 [Compound 9f, N’-((Z)-1-(4-Aminophenyl)-3-phenylallylidene)-2-(4-methoxyphenyl)-6-methoxyquinoline-4-carbohydrazide] | 91 µM | 81 µM | 81.2 ± 3.14 µM | 91.4 ± 4.54 µM |
| COc1ccc(/C=C\C(=NNC(=O)c2cc(-c3ccc(OC)cc3)nc3ccc(OC)cc23)c2ccc(N)cc2)cc1 [Compound 9r, N’-((Z)-1-(4-Aminophenyl)-3-(4-methoxyphenyl)allylidene)-2-(4-methoxyphenyl)-6-methoxyquinoline-4-carbohydrazide] | 67.4 ± 2.29 µM | 4.45 ± 0.64 µM | – | – |
| COc1ccc(-c2cc(C(=O)NN=C(/C=C\c3ccc(OC)c(OC)c3)c3ccc(N)cc3)c3cc(OC)ccc3n2)cc1 [Compound 9t, N’-((Z)-1-(4-Aminophenyl)-3-(3,4-dimethoxyphenyl)allylidene)-2-(4-methoxyphenyl)-6-methoxyquinoline-4-carbohydrazide] | 31.6 ± 2.02 µM | 23.1 ± 2.15 µM | – | – |
| COc1ccc(/C=C\C(=NNC(=O)c2cc(-c3ccc(Cl)cc3)nc3ccc(OC)cc23)c2ccc(N)cc2)cc1 [Compound 9q, N’-((Z)-1-(4-Aminophenyl)-3-(4-methoxyphenyl)allylidene)-2-(4-chlorophenyl)-6-methoxyquinoline-4-carbohydrazide] | 97.2 ± 2.36 µM | 68.1 ± 2.87 µM | – | – |
| COc1ccc(-c2cc(C(=O)NN=C(/C=C\c3ccc(Cl)cc3)c3ccc(N)cc3)c3cc(OC)ccc3n2)cc1 [Compound 9l, N’-((Z)-1-(4-Aminophenyl)-3-(4-chlorophenyl)allylidene)-2-(4-methoxyphenyl)-6-methoxyquinoline-4-carbohydrazide] | > 100 µM | 5.17 ± 0.18 µM | – | – |
| COc1ccc(/C=C\C(=NNC(=O)c2cc(-c3ccc(OC)cc3)nc3ccccc23)c2ccc(N)cc2)cc1 [Compound 9o, N’-((Z)-1-(4-Aminophenyl)-3-(4-methoxyphenyl)allylidene)-2-(4-methoxyphenyl)quinoline-4-carbohydrazide] | 46.5 ± 2.21 µM | 10.9 ± 0.74 µM | – | – |
| COc1ccc2nc(-c3ccc(Cl)cc3)cc(C(=O)NN=C(/C=C\c3ccc(Cl)cc3)c3ccc(N)cc3)c2c1 [Compound 9k, N’-((Z)-1-(4-Aminophenyl)-3-(4-chlorophenyl)allylidene)-2-(4-chlorophenyl)-6-methoxyquinoline-4-carbohydrazide] | > 100 µM | 15.2 ± 1.49 µM | – | – |
| Cc1ccc(-c2cc(C(=O)NN=C(/C=C\c3ccccc3)c3ccc(N)cc3)c3ccccc3n2)cc1 [Compound 9d, N’-((Z)-1-(4-Aminophenyl)-3-phenylallylidene)-2-(4-methylphenyl)quinoline-4-carbohydrazide] | 11 µM | 6.98 ± 0.92 µM | – | 11.2 ± 0.52 µM |
| O=c1cc(N2CCOCC2)oc2c(-c3ccccc3)cccc12 [LY294002, reference compound] | 3.52 µM | 2.68 µM | – | – |
| COc1ccc(-c2cc(C(=O)NN=C(/C=C\c3ccccc3)c3ccc(N)cc3)c3ccccc3n2)cc1 [Compound 9c, N’-((Z)-1-(4-Aminophenyl)-3-phenylallylidene)-2-(4-methoxyphenyl)quinoline-4-carbohydrazide] | 16.4 ± 1.3 µM | 5.37 ± 0.31 µM | – | – |
| Nc1ccc(C(/C=C\c2ccc(Cl)cc2)=NNC(=O)c2cc(-c3ccc(Cl)cc3)nc3ccccc23)cc1 [Compound 9h, N’-((Z)-1-(4-Aminophenyl)-3-(4-chlorophenyl)allylidene)-2-(4-chlorophenyl)quinoline-4-carbohydrazide] | 9 µM | 4.28 ± 0.34 µM | – | 9.46 ± 0.63 µM |
| COc1ccc(/C=C\C(=NNC(=O)c2cc(-c3ccc(C)cc3)nc3ccccc23)c2ccc(N)cc2)cc1 [Compound 9p, N’-((Z)-1-(4-Aminophenyl)-3-(4-methoxyphenyl)allylidene)-2-(4-methylphenyl)quinoline-4-carbohydrazide] | 33.9 ± 2.15 µM | 18 ± 0.97 µM | – | – |
| COc1ccc2nc(-c3ccc(Cl)cc3)cc(C(=O)NN=C(/C=C\c3ccccc3)c3ccc(N)cc3)c2c1 [Compound 9e, N’-((Z)-1-(4-Aminophenyl)-3-phenylallylidene)-2-(4-chlorophenyl)-6-methoxyquinoline-4-carbohydrazide] | 19.2 ± 1.85 µM | 5.09 ± 0.19 µM | – | – |
| COc1ccc2nc(-c3ccc(Cl)cc3)cc(C(=O)NN=C(/C=C\c3ccc(OC)c(OC)c3)c3ccc(N)cc3)c2c1 [Compound 9s, N’-((Z)-1-(4-Aminophenyl)-3-(3,4-dimethoxyphenyl)allylidene)-2-(4-chlorophenyl)-6-methoxyquinoline-4-carbohydrazide] | > 100 µM | > 100 µM | – | – |
| COc1ccc(/C=C\C(=NNC(=O)c2cc(-c3ccccc3)nc3ccccc23)c2ccc(N)cc2)cc1 [Compound 9m, N’-((Z)-1-(4-Aminophenyl)-3-(4-methoxyphenyl)allylidene)-2-phenylquinoline-4-carbohydrazide] | > 100 µM | 60.7 ± 2.67 µM | – | – |
